pIC50: −log10 of the molar value.
Columns and labels:
human rec ACSS2 = human rec ACSS2 (Homo sapiens (Human), UniProt Q9NR19); experiment: Biochemical activity ACSS2 assay (AMP-Glo); conditions: human recombinant ACSS2, AMP-Glo, 180 min at 37° C.
From the text: Biochemical Activity ACSS2 Assay (IC50 ACSS2 Biochemical)
The biochemical activity assay for ACSS2 is based on the detection of released AMP by AMP-Glo™ Assay kit (Promega, Madison). The assay is run in three steps: the enzymatic reaction in which human rec ACSS2 activates acetate with ATP and Coenzyme A as cosubstrates to acetyl-CoA thereby releasing AMP and the detection reaction of AMP by AMP Glo assay in which after the destruction of the residual ATP with AMP Glo reagent 1 produced AMP is converted to ATP that is measured in a luciferase assay system (detection reagent). The ACSS2 activity correlates with the detected luminescence signal.
The assay was performed in Perkin Elmer 384 well white Proxiplates in a total volume of 8 μl.
1 nM (fc)C-term myc tagged ACSS2 (human, recombinant, Origene, Rockville, US) and a mixture of 100 μM (fc) ATP, 100 μM (fc) Coenzyme A and 500 μM (fc) sodium acetate were incubated in a total volume of 5 μl (50 mM Hepes, 1 mM Mg-chloride, 150 mM NaCl, 1 mM DTT, 0.01% (w/v) BSA, 0.3% DMSO, pH 7.5) in the absence or presence of the test compound (10 dilution concentrations, start conc 30 μM) for 180 min at 37° C. The reaction was stopped and residual ATP destroyed by the addition of 1 μl AMP Glo reagent solution (Promega, Madison, US). After 1h incubation at room temperature 2 μl of AMP Glo detection reagent was added and the assay was incubated for 0.75 hr at room temperature. The luminescence signal was measured with an Envision multimode reader (Perkin Elmer LAS Germany GmbH) at 700 nm in luminescence mode. The full value used was the inhibitor-free reaction. The pharmacological zero value was generated by addition of ACSS2 inhibitor (Ac-CoA Synthase Inhibitor—CAS 508186-14-9-Calbiochem) in a final concentration of 5 μM. The inhibitory values (IC50) were determined using the program Assay Analyzer® from GeneData.

ACSS2 [1] = target: T1, ACSS2 (Homo sapiens (Human), UniProt Q9NR19); experiment: Cellular assay of 14C acetate incorporation into fatty acids (IC50 ACSS2 cellular lipids); format: cell-based; conditions: HCT-15 cells
T1 sequence (Q9NR19 whole entry): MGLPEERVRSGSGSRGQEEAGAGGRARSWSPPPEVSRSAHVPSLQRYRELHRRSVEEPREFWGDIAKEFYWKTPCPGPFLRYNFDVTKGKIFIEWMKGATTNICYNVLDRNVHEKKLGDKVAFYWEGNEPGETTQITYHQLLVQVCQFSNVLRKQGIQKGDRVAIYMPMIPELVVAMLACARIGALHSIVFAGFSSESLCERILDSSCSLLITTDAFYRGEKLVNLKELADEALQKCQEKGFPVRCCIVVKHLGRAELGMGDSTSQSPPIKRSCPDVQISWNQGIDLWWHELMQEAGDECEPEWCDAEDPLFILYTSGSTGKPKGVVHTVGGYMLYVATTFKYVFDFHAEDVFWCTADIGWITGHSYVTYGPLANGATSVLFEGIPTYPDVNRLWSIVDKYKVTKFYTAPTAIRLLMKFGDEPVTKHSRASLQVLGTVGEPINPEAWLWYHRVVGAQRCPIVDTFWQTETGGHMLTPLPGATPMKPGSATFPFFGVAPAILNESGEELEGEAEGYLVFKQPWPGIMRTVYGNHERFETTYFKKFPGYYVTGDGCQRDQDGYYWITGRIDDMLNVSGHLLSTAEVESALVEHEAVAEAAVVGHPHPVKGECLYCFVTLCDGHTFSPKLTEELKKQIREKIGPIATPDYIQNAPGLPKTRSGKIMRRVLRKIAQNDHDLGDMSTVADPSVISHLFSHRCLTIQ
Description: Cellular Assay of ^14C Acetate Incorporation into Fatty Acids (IC50 ACSS2 Cellular Lipids)
This protocol describes a cellular assay capable to quantify endogenous fatty acid synthesis activity in the human HCT-15 cancer cell line following the incorporation of extracellularly administered radiolabeled ^14C acetate with a scintillation proximity based read out on extracted fatty acids.
HCT-15 cells were grown in RPMI 1640 (Gibco) supplemented with 2 mM glutamine, 1 mM sodium pyruvate 10 mM HEPES and 10% FCS (heat-inactivated) passaged every 2-3 days to remain a subconfluent, vital culture. A working cell bank was prepared with each aliquot containing 1×10^7 viable cells. After thawing, these cells are dilute immediately 1:20 in pre-warmed (37° C.) culture medium. Cells are collected by centrifugation at 200×g for 5 min, and the supernatant is replaced by 30 mL of fresh culture medium per aliquot to obtain a cell suspension containing 350000 cells/ml. From this cell suspension 100 μL are dispersed into each well of a collagen coated 96 well plate, (black, clear bottom, PS, F-bottom, Greiner) and culture for 24 h (37° C., 5% CO2). After incubation the culture medium is removed and the wells are washed once with 100 μL PBS++(supplemented with Mg^2+/Ca^2+, Gibco) and 50 μL assay medium (RPMI 1640+10 mM HEPES) are added to each well. Compounds serial dilutions are prepared from 10 mM stock solutions in DMSO using a fixed dilution factor (usually 1:3). After preparation of the dilution series in DMSO, the individual dilutions are further diluted in the assay medium. This working dilution is prepared such, that the concentration is 7× of the final concentration in the assay. The maximal DMSO concentration in the final assay is 0.1%.
To each well 10 μL compound working dilution or DMSO blank are added and the cells are cultured for 2 h (37° C., 5% CO2). Then 10 μL AlamarBlue reagent (Invitrogen) containing 14 μCi/mL 14C-acetate (Perkin Elmer) are added to each well (70 μl total volume) and cells are again cultured for 2 h. Cell viability is verified by measuring the AlamarBlue fluorescence (Tecan Safire, ex: 544 nm/em: 590 nm). After incubation the culture medium is removed and the wells are carefully washed once with cold 100 μL PBS++. For cell lysis and fatty acid recovery 50 μl 0.1 M NaOH and 0.1% Triton-X100 are added per well. The plate is sealed with PlateLoc (clear peelable heat seal, Agilent) and incubate at 70° C. for 16-24 h. After cooling to room temperature, the plates are centrifuged for 1 min at 1000 rpm and the plate seals are removed. For acidification 150 μL 0.1 M HCl are added to each well, mixed and 150 μL of the mixture are transferred into a 96 well FlashPlate (Perkin Elmer). The plates are sealed with TopSeal-A (Perkin Elmer). To allow for the fatty acid binding to the well surfaces the plates are incubate for 4 h at 70° C. After cooling to room temperature, the plates are centrifuged for 1 min at 1000 rpm and stored for 0.5-2h at room temperature in the dark. Radioactivity from ^14C incorporation into fatty acids in the wells is measured as CPM count in a MicroBeta scintillation counter (Perkin Elmer).

ACSS2 [2] = target: T1, ACSS2; experiment: Cellular assay of 14C acetate incorporation into histones (IC50 ACSS2 cellular histone); format: cell-based; conditions: HCT-15 cells
From the text: Cellular Assay of ^14C Acetate Incorporation into Histones (IC50 ACSS2 Cellular Histone)
This protocol describes a cellular assay capable to quantify endogenous histone acetylation activity in the human HCT-15 cancer cell line following the incorporation of extracellularly administered radiolabeled ^14C acetate with a scintillation based read out on acid extracted histones.
HCT-15 cells are trypsinized, washed and suspended in DMEM culture medium supplemented with penicillin/streptomycin (100 U/mL), sodium pyruvate (1 mM), and 10% FBS
Compounds serial dilutions are prepared in 96-well V-bottom microplate from 10 mM stock solutions in DMSO. From these dilutions 0.5 μl are transferred to a fresh plate including pure DMSO as negative control. The dilutions are prepared such, that the final concentration in the assay is 1/400 of the concentration in the serial dilution. The final DMSO concentration in the assay is 0.25%.
The cell suspension is seeded at densities of 2×10^5 cells per 170 μl into individual wells of a 96 well plate each containing 0.5 μl aliquots of compound serial dilutions and are kept for 1 h in a cell incubator. To each well 30 μL of a mixture containing 0.5 mCi/mL of ^14C-acetate with full medium are added. Then, the wells are incubated for 3 hrs in the cell incubator.
Further steps of the procedure should be conducted on ice or instrumentations precooled to 4° C. Cells are sedimented in the 96-well V-bottom microplate by centrifugation (Eppendorf 5804 R) at 1200 rpm for 5 min. The supernatant is removed and the cells are washed twice with 200 μL of PBS-NaB (5 mM sodium butyrate) buffer by iterative resuspension and centrifugation. Finally, the cells are resuspended in 50 μL of TEB (PBS-NaB+0.5% Triton X-100) and left on ice for 10 minutes. After centrifugation at 2300 rpm for 10 minutes at 4° C. the supernatant is removed, the remaining pellet is suspended in 50 μL of 0.2M HCl and incubated over night at 4° C. After incubation the well plate is shaken for 2 minutes in a MTP plate shaker set to 1200 rpm and then centrifuged at 3700 rpm for 10 mins. The lysate is carefully aspirated (˜43 μL) and transferred into a white MTP plate (Greiner bio-one 65509). 90 μL of Ultima Gold XR scintillation cocktail are added and the plates are sealed with a transparent cover tape before mixing vigorously using plate shaker set to 1200 rpm. Radioactivity from ^14C incorporation in the wells is measured as CPM count in a MicroBeta Trilux luminescence counter.

Chain of human rec ACSS2 (Q9NR19 whole entry): as above

Structure (SMILES)	pIC50 (human rec ACSS2)	pIC50 (ACSS2 [1])	pIC50 (ACSS2 [2])
CCn1c(C(O)(c2ccccc2)c2ccccc2)nc2nc(F)c(-c3nnn[nH]3)cc21 [Compound 45, [1-ethyl-5-fluoro-6-(1H-1,2,3,4-tetrazol-5-yl)-1H-imidazo[4,5-b]pyridin-2-yl]diphenylmethanol]	7.00 to 8.00	8.00 to 9.00	5.00 to 7.00
Cc1nc2nc(C(O)(c3ccccc3)c3ccccc3)n(C)c2cc1-c1nnn[nH]1 [Compound 56, [1,5-dimethyl-6-(1H-1,2,3,4-tetrazol-5-yl)-1H-imidazo[4,5-b]pyridin-2-yl]diphenylmethanol]	8.00 to 9.00	7.00 to 8.00	5.00 to 7.00
CCn1c(C(O)(c2ccccc2)c2nccs2)nc2nc(OC)c(-c3nnn[nH]3)cc21 (racemic) [Compound 31, [1-ethyl-5-methoxy-6-(1H-1,2,3,4-tetrazol-5-yl)-1H-imidazo[4,5-b]pyridin-2-yl](phenyl)(1,3-thiazol-2-yl)methanol]	8.00 to 9.00	9.00 to 11.00	8.00 to 9.00
